From BigSolDB 2.1

O=C1NC(=O)c2cc([N+](=O)[O-])ccc21
Conditions	solubility (mole fraction)
in 1,4-dioxane, 283.15 K	0.0228
in 1,4-dioxane, 285.65 K	0.0238
in 1,4-dioxane, 288.15 K	0.0249
in 1,4-dioxane, 293.15 K	0.0271
in 1,4-dioxane, 295.65 K	0.0282
in 1,4-dioxane, 298.15 K	0.0295
in 1,4-dioxane, 303.15 K	0.0318
in 1,4-dioxane, 305.65 K	0.0331
in 1,4-dioxane, 308.15 K	0.0345
in 1,4-dioxane, 313.15 K	0.0371
in 1,4-dioxane, 315.65 K	0.0384
in 1,4-dioxane, 318.15 K	0.0399
in 1,4-dioxane, 323.15 K	0.0425
in 2-butanone, 273.15 K	0.0161
in 2-butanone, 275.65 K	0.0169
in 2-butanone, 278.15 K	0.0177
in 2-butanone, 283.15 K	0.0195
in 2-butanone, 285.65 K	0.0205
in 2-butanone, 288.15 K	0.0215
in 2-butanone, 293.15 K	0.0234
in 2-butanone, 295.65 K	0.0244
in 2-butanone, 298.15 K	0.0256
in 2-butanone, 303.15 K	0.0279
in 2-butanone, 305.65 K	0.029
in 2-butanone, 308.15 K	0.0302
in 2-butanone, 313.15 K	0.0327
in 2-butanone, 315.65 K	0.0339
in 2-butanone, 318.15 K	0.0353
in 2-butanone, 323.15 K	0.038
in DMF, 273.15 K	0.0357
in DMF, 275.65 K	0.039
in DMF, 278.15 K	0.0425
in DMF, 283.15 K	0.0497
in DMF, 285.65 K	0.0535
in DMF, 288.15 K	0.0586
in DMF, 293.15 K	0.0682
in DMF, 295.65 K	0.0732
in DMF, 298.15 K	0.0789
in DMF, 303.15 K	0.0912
in DMF, 305.65 K	0.0976
in DMF, 308.15 K	0.104
in DMF, 313.15 K	0.12
in DMF, 315.65 K	0.128
in DMF, 318.15 K	0.137
in DMF, 323.15 K	0.155
in acetone, 273.15 K	0.0175
in acetone, 275.65 K	0.0185
in acetone, 278.15 K	0.0193
in acetone, 283.15 K	0.0211
in acetone, 285.65 K	0.022
in acetone, 288.15 K	0.023
in acetone, 293.15 K	0.025
in acetone, 295.65 K	0.0261
in acetone, 298.15 K	0.0271
in acetone, 303.15 K	0.0293
in acetone, 305.65 K	0.0305
in acetone, 308.15 K	0.0317
in acetone, 313.15 K	0.034
in acetone, 315.65 K	0.0353
in acetone, 318.15 K	0.0366
in acetone, 323.15 K	0.0392
in acetonitrile, 273.15 K	0.00359
in acetonitrile, 275.65 K	0.00382
in acetonitrile, 278.15 K	0.00403
in acetonitrile, 283.15 K	0.00449
in acetonitrile, 285.65 K	0.00474
in acetonitrile, 288.15 K	0.00503
in acetonitrile, 293.15 K	0.00555
in acetonitrile, 295.65 K	0.00584
in acetonitrile, 298.15 K	0.00618
in acetonitrile, 303.15 K	0.00679
in acetonitrile, 305.65 K	0.00709
in acetonitrile, 308.15 K	0.00749
in acetonitrile, 313.15 K	0.00822
in acetonitrile, 315.65 K	0.00858
in acetonitrile, 318.15 K	0.00894
in acetonitrile, 323.15 K	0.00976
in benzyl alcohol, 273.15 K	0.0134
in benzyl alcohol, 275.65 K	0.0143
in benzyl alcohol, 278.15 K	0.0154
in benzyl alcohol, 283.15 K	0.0175
in benzyl alcohol, 285.65 K	0.0188
in benzyl alcohol, 288.15 K	0.0202
in benzyl alcohol, 293.15 K	0.023
in benzyl alcohol, 295.65 K	0.0245
in benzyl alcohol, 298.15 K	0.0261
in benzyl alcohol, 303.15 K	0.0294
in benzyl alcohol, 305.65 K	0.0312
in benzyl alcohol, 308.15 K	0.0331
in benzyl alcohol, 313.15 K	0.0372
in benzyl alcohol, 315.65 K	0.0393
in benzyl alcohol, 318.15 K	0.0417
in benzyl alcohol, 323.15 K	0.0466
in chloroform, 273.15 K	0.000535
in chloroform, 275.65 K	0.000577
in chloroform, 278.15 K	0.000625
in chloroform, 283.15 K	0.000722
in chloroform, 285.65 K	0.000775
in chloroform, 288.15 K	0.000837
in chloroform, 293.15 K	0.000959
in chloroform, 295.65 K	0.00102
in chloroform, 298.15 K	0.00109
in chloroform, 303.15 K	0.00124
in chloroform, 305.65 K	0.00131
in chloroform, 308.15 K	0.0014
in chloroform, 313.15 K	0.0016
in chloroform, 315.65 K	0.00169
in chloroform, 318.15 K	0.00178
in chloroform, 323.15 K	0.00201
in cyclohexanone, 273.15 K	0.0295
in cyclohexanone, 275.65 K	0.0307
in cyclohexanone, 278.15 K	0.0321
in cyclohexanone, 283.15 K	0.0352
in cyclohexanone, 285.65 K	0.0367
in cyclohexanone, 288.15 K	0.0387
in cyclohexanone, 293.15 K	0.0422
in cyclohexanone, 295.65 K	0.044
in cyclohexanone, 298.15 K	0.0461
in cyclohexanone, 303.15 K	0.0506
in cyclohexanone, 305.65 K	0.0527
in cyclohexanone, 308.15 K	0.0552
in cyclohexanone, 313.15 K	0.0604
in cyclohexanone, 315.65 K	0.0629
in cyclohexanone, 318.15 K	0.0655
in cyclohexanone, 323.15 K	0.0708
in ethanol, 273.15 K	0.000713
in ethanol, 275.65 K	0.000799
in ethanol, 278.15 K	0.000897
in ethanol, 283.15 K	0.00112
in ethanol, 285.65 K	0.00123
in ethanol, 288.15 K	0.00137
in ethanol, 293.15 K	0.00166
in ethanol, 295.65 K	0.00183
in ethanol, 298.15 K	0.00201
in ethanol, 303.15 K	0.00244
in ethanol, 305.65 K	0.00265
in ethanol, 308.15 K	0.00288
in ethanol, 313.15 K	0.00347
in ethanol, 315.65 K	0.00378
in ethanol, 318.15 K	0.00405
in ethanol, 323.15 K	0.00479
in ethyl acetate, 273.15 K	0.00919
in ethyl acetate, 275.65 K	0.00981
in ethyl acetate, 278.15 K	0.0104
in ethyl acetate, 283.15 K	0.0117
in ethyl acetate, 285.65 K	0.0123
in ethyl acetate, 288.15 K	0.0131
in ethyl acetate, 293.15 K	0.0146
in ethyl acetate, 295.65 K	0.0155
in ethyl acetate, 298.15 K	0.0163
in ethyl acetate, 303.15 K	0.0181
in ethyl acetate, 305.65 K	0.019
in ethyl acetate, 308.15 K	0.02
in ethyl acetate, 313.15 K	0.022
in ethyl acetate, 315.65 K	0.0231
in ethyl acetate, 318.15 K	0.0243
in ethyl acetate, 323.15 K	0.0266
in isopropanol, 273.15 K	0.000586
in isopropanol, 275.65 K	0.000643
in isopropanol, 278.15 K	0.000741
in isopropanol, 283.15 K	0.000937
in isopropanol, 285.65 K	0.00104
in isopropanol, 288.15 K	0.00115
in isopropanol, 293.15 K	0.00143
in isopropanol, 295.65 K	0.00159
in isopropanol, 298.15 K	0.00175
in isopropanol, 303.15 K	0.00214
in isopropanol, 305.65 K	0.00234
in isopropanol, 308.15 K	0.00257
in isopropanol, 313.15 K	0.00311
in isopropanol, 315.65 K	0.0034
in isopropanol, 318.15 K	0.0037
in isopropanol, 323.15 K	0.00443
in methanol, 273.15 K	0.0014
in methanol, 275.65 K	0.00151
in methanol, 278.15 K	0.00167
in methanol, 283.15 K	0.00196
in methanol, 285.65 K	0.00212
in methanol, 288.15 K	0.00233
in methanol, 293.15 K	0.00272
in methanol, 295.65 K	0.00295
in methanol, 298.15 K	0.00318
in methanol, 303.15 K	0.00372
in methanol, 305.65 K	0.00397
in methanol, 308.15 K	0.00427
in methanol, 313.15 K	0.00493
in methanol, 315.65 K	0.00527
in methanol, 318.15 K	0.00566
in methanol, 323.15 K	0.00646
